Source: the NIST ThermoML archive (doi:10.1021/je060271a)
Numbers after ± are expanded uncertainties.

Conditions: 303.15 K, Liquid, Vibrating tube method

CCCCCC(=O)OCC(COC(=O)CCCCC)(COC(=O)CCCCC)COC(=O)CCCCC [pentaerythritol tetrahexanoate]
Conditions	mass density [kg/m3]
20855 kPa	1001 ± 1.2
20888 kPa	1001.2 ± 1.2
20914 kPa	1001.2 ± 1.2
20942 kPa	1001.1 ± 1.2
20975 kPa	1001.1 ± 1.2
21003 kPa	1001.2 ± 1.2
21057 kPa	1001.1 ± 1.2
21090 kPa	1001.2 ± 1.2
21118 kPa	1001.3 ± 1.2
21151 kPa	1001.3 ± 1.2
21178 kPa	1001.2 ± 1.2
21207 kPa	1001.4 ± 1.2
21241 kPa	1001.3 ± 1.2
21268 kPa	1001.5 ± 1.2
21297 kPa	1001.3 ± 1.2
21331 kPa	1001.4 ± 1.2
21360 kPa	1001.3 ± 1.2
21388 kPa	1001.4 ± 1.2
21422 kPa	1001.4 ± 1.2
21451 kPa	1001.6 ± 1.2
21480 kPa	1001.5 ± 1.2
21514 kPa	1001.5 ± 1.2
21543 kPa	1001.5 ± 1.2
21572 kPa	1001.4 ± 1.2
21607 kPa	1001.6 ± 1.2
21636 kPa	1001.5 ± 1.2
21665 kPa	1001.5 ± 1.2
21701 kPa	1001.5 ± 1.2
21731 kPa	1001.6 ± 1.2
21761 kPa	1001.6 ± 1.2
21796 kPa	1001.7 ± 1.2
21826 kPa	1001.7 ± 1.2
21855 kPa	1001.7 ± 1.2
21885 kPa	1001.6 ± 1.2
21921 kPa	1001.7 ± 1.2
21951 kPa	1001.7 ± 1.2
21981 kPa	1001.8 ± 1.2
22018 kPa	1001.8 ± 1.2
22048 kPa	1001.8 ± 1.2
22079 kPa	1001.8 ± 1.2
22116 kPa	1001.9 ± 1.2
22149 kPa	1001.8 ± 1.2
22180 kPa	1001.9 ± 1.2
22211 kPa	1002 ± 1.2
22242 kPa	1001.8 ± 1.2
22280 kPa	1001.9 ± 1.2
22311 kPa	1002 ± 1.2
22348 kPa	1002 ± 1.2
22379 kPa	1002 ± 1.2
22411 kPa	1002.1 ± 1.2
22442 kPa	1002 ± 1.2
22481 kPa	1002.1 ± 1.2
22513 kPa	1002 ± 1.2
22546 kPa	1002 ± 1.2
22581 kPa	1002.1 ± 1.2
22619 kPa	1002.2 ± 1.2
22651 kPa	1002.1 ± 1.2
22683 kPa	1002.2 ± 1.2
22715 kPa	1002.2 ± 1.2
22754 kPa	1002.2 ± 1.2
22786 kPa	1002.3 ± 1.2
22819 kPa	1002.3 ± 1.2
22858 kPa	1002.4 ± 1.2
22891 kPa	1002.2 ± 1.2
22930 kPa	1002.3 ± 1.2
22964 kPa	1002.4 ± 1.2
22998 kPa	1002.3 ± 1.2
23032 kPa	1002.4 ± 1.2
23072 kPa	1002.4 ± 1.2
23106 kPa	1002.3 ± 1.2
23140 kPa	1002.4 ± 1.2
23181 kPa	1002.4 ± 1.2
23215 kPa	1002.5 ± 1.2
23256 kPa	1002.4 ± 1.2
23291 kPa	1002.4 ± 1.2
23325 kPa	1002.5 ± 1.2
23359 kPa	1002.5 ± 1.2
23398 kPa	1002.5 ± 1.2
24292 kPa	1003 ± 1.2
24323 kPa	1003 ± 1.2
24354 kPa	1003.1 ± 1.2
24390 kPa	1002.9 ± 1.2
24841 kPa	1003.3 ± 1.2
24870 kPa	1003.4 ± 1.2
24905 kPa	1003.4 ± 1.2
24964 kPa	1003.4 ± 1.2
25000 kPa	1003.5 ± 1.2
25312 kPa	1003.6 ± 1.2
25349 kPa	1003.7 ± 1.2
25380 kPa	1003.6 ± 1.2
25410 kPa	1003.8 ± 1.2
25447 kPa	1003.7 ± 1.2
25478 kPa	1003.7 ± 1.2
25518 kPa	1003.7 ± 1.2
25545 kPa	1003.9 ± 1.2
25582 kPa	1003.9 ± 1.2
25614 kPa	1003.7 ± 1.2
25643 kPa	1003.8 ± 1.2
25916 kPa	1003.9 ± 1.2
25947 kPa	1003.9 ± 1.2
25973 kPa	1004.1 ± 1.2
26004 kPa	1004 ± 1.2
26030 kPa	1004.2 ± 1.2
26056 kPa	1004 ± 1.2
26088 kPa	1004.1 ± 1.2
26114 kPa	1004.1 ± 1.2
26140 kPa	1004.1 ± 1.2
26167 kPa	1004.2 ± 1.2
26199 kPa	1004.1 ± 1.2
26225 kPa	1004.2 ± 1.2
26258 kPa	1004.3 ± 1.2
26285 kPa	1004.1 ± 1.2
26312 kPa	1004.2 ± 1.2
26339 kPa	1004.2 ± 1.2
26371 kPa	1004.2 ± 1.2
26399 kPa	1004.2 ± 1.2
26427 kPa	1004.2 ± 1.2
26460 kPa	1004.3 ± 1.2
26488 kPa	1004.3 ± 1.2
26520 kPa	1004.3 ± 1.2
26545 kPa	1004.4 ± 1.2
26569 kPa	1004.3 ± 1.2
26593 kPa	1004.4 ± 1.2
26623 kPa	1004.3 ± 1.2
26648 kPa	1004.2 ± 1.2
26672 kPa	1004.4 ± 1.2
26701 kPa	1004.4 ± 1.2
26726 kPa	1004.3 ± 1.2
26751 kPa	1004.5 ± 1.2
26776 kPa	1004.4 ± 1.2
26806 kPa	1004.4 ± 1.2
26830 kPa	1004.4 ± 1.2
26856 kPa	1004.5 ± 1.2
26885 kPa	1004.5 ± 1.2
26910 kPa	1004.5 ± 1.2
26936 kPa	1004.7 ± 1.2
26966 kPa	1004.6 ± 1.2
26991 kPa	1004.4 ± 1.2
27016 kPa	1004.6 ± 1.2
27041 kPa	1004.7 ± 1.2
27071 kPa	1004.6 ± 1.2
27097 kPa	1004.6 ± 1.2
27127 kPa	1004.5 ± 1.2
27152 kPa	1004.5 ± 1.2
27178 kPa	1004.7 ± 1.2
27208 kPa	1004.8 ± 1.2
27234 kPa	1004.7 ± 1.2
27260 kPa	1004.7 ± 1.2
27291 kPa	1004.6 ± 1.2
27317 kPa	1004.6 ± 1.2
27343 kPa	1004.7 ± 1.2
27369 kPa	1004.9 ± 1.2
27400 kPa	1004.9 ± 1.2
27426 kPa	1004.8 ± 1.2
27458 kPa	1004.7 ± 1.2
27484 kPa	1004.8 ± 1.2
27511 kPa	1004.8 ± 1.2
27537 kPa	1004.8 ± 1.2
27564 kPa	1004.8 ± 1.2
27595 kPa	1004.9 ± 1.2
27621 kPa	1004.9 ± 1.2
27654 kPa	1005 ± 1.2
27682 kPa	1004.9 ± 1.2
27708 kPa	1005 ± 1.2
27734 kPa	1004.9 ± 1.2
27761 kPa	1005 ± 1.2
27793 kPa	1005 ± 1.2
27820 kPa	1005.1 ± 1.2
27852 kPa	1005.1 ± 1.2
27879 kPa	1005.1 ± 1.2
27906 kPa	1005 ± 1.2
27938 kPa	1005 ± 1.2
27965 kPa	1005.2 ± 1.2
27993 kPa	1005.2 ± 1.2
28027 kPa	1005.2 ± 1.2
28056 kPa	1005 ± 1.2
28083 kPa	1005.1 ± 1.2
28110 kPa	1005.1 ± 1.2
28143 kPa	1005.1 ± 1.2
28171 kPa	1005.3 ± 1.2
28199 kPa	1005.3 ± 1.2
28227 kPa	1005.2 ± 1.2
28260 kPa	1005.2 ± 1.2
28288 kPa	1005.2 ± 1.2
28317 kPa	1005.3 ± 1.2
28351 kPa	1005.4 ± 1.2
28379 kPa	1005.3 ± 1.2
28409 kPa	1005.3 ± 1.2
28443 kPa	1005.3 ± 1.2
28471 kPa	1005.3 ± 1.2
28500 kPa	1005.4 ± 1.2
28535 kPa	1005.4 ± 1.2
28564 kPa	1005.4 ± 1.2
28594 kPa	1005.5 ± 1.2
28658 kPa	1005.5 ± 1.2
28687 kPa	1005.5 ± 1.2
28718 kPa	1005.5 ± 1.2
28743 kPa	1005.5 ± 1.2
28769 kPa	1005.6 ± 1.2
28800 kPa	1005.6 ± 1.2
28826 kPa	1005.5 ± 1.2
28851 kPa	1005.6 ± 1.2
28877 kPa	1005.6 ± 1.2
28909 kPa	1005.6 ± 1.2
29460 kPa	1006.1 ± 1.2
29484 kPa	1005.9 ± 1.2
29506 kPa	1005.9 ± 1.2
29534 kPa	1006 ± 1.2
29556 kPa	1006 ± 1.2
29580 kPa	1006 ± 1.2
29607 kPa	1006 ± 1.2
29630 kPa	1006 ± 1.2
29658 kPa	1006.1 ± 1.2
29682 kPa	1006.1 ± 1.2
29705 kPa	1006.1 ± 1.2
29729 kPa	1006 ± 1.2
29756 kPa	1006 ± 1.2
29780 kPa	1006.1 ± 1.2
29804 kPa	1006.2 ± 1.2
29831 kPa	1006.2 ± 1.2
29856 kPa	1006.1 ± 1.2
29879 kPa	1006.1 ± 1.2
29902 kPa	1006.2 ± 1.2
29931 kPa	1006.1 ± 1.2
29954 kPa	1006.1 ± 1.2
29983 kPa	1006.2 ± 1.2
30006 kPa	1006.3 ± 1.2
30030 kPa	1006.3 ± 1.2
30059 kPa	1006.2 ± 1.2
30083 kPa	1006.3 ± 1.2
30108 kPa	1006.3 ± 1.2
30132 kPa	1006.3 ± 1.2
30161 kPa	1006.4 ± 1.2
30185 kPa	1006.4 ± 1.2
30209 kPa	1006.2 ± 1.2
30233 kPa	1006.3 ± 1.2
30262 kPa	1006.3 ± 1.2
30287 kPa	1006.3 ± 1.2
31166 kPa	1006.8 ± 1.2
31197 kPa	1006.8 ± 1.2
31224 kPa	1006.8 ± 1.2
31255 kPa	1006.9 ± 1.2
31283 kPa	1006.9 ± 1.2
31310 kPa	1006.9 ± 1.2
31337 kPa	1006.9 ± 1.2
31370 kPa	1007 ± 1.2
31398 kPa	1007 ± 1.2
31426 kPa	1007 ± 1.2
31459 kPa	1006.9 ± 1.2
31483 kPa	1007.1 ± 1.2
31506 kPa	1007.1 ± 1.2
31534 kPa	1006.9 ± 1.2
31556 kPa	1007.1 ± 1.2
31580 kPa	1007 ± 1.2
31608 kPa	1007.1 ± 1.2
31632 kPa	1007.1 ± 1.2
31656 kPa	1007.2 ± 1.2
31683 kPa	1007.1 ± 1.2
31701 kPa	1007.2 ± 1.2
31719 kPa	1007.1 ± 1.2
31737 kPa	1007.2 ± 1.2
31758 kPa	1007.1 ± 1.2
31777 kPa	1007.2 ± 1.2
31795 kPa	1007.2 ± 1.2
31814 kPa	1007.4 ± 1.2
31835 kPa	1007.2 ± 1.2
31853 kPa	1007.2 ± 1.2
31875 kPa	1007.2 ± 1.2
31893 kPa	1007.3 ± 1.2
31911 kPa	1007.3 ± 1.2
31933 kPa	1007.2 ± 1.2
31951 kPa	1007.3 ± 1.2
31969 kPa	1007.3 ± 1.2
31990 kPa	1007.5 ± 1.2
32009 kPa	1007.4 ± 1.2
32027 kPa	1007.3 ± 1.2
32049 kPa	1007.3 ± 1.2
32068 kPa	1007.3 ± 1.2
32086 kPa	1007.4 ± 1.2
32104 kPa	1007.4 ± 1.2
32127 kPa	1007.5 ± 1.2
32145 kPa	1007.4 ± 1.2
32167 kPa	1007.4 ± 1.2
32186 kPa	1007.4 ± 1.2
32204 kPa	1007.4 ± 1.2
32226 kPa	1007.5 ± 1.2
32244 kPa	1007.4 ± 1.2
32403 kPa	1007.6 ± 1.2
32426 kPa	1007.6 ± 1.2
